Experimental data reported in the NIST ThermoML archive (doi:10.1016/j.fluid.2018.07.028).
Numbers after ± are expanded uncertainties.

Experiment: activity coefficient (dimensionless); of the first substance listed, at infinite dilution; xn = mol fraction of the nth substance listed
Details: 101.33 kPa, Liquid, Chromatography, x1 = 0

SMILES	activity coefficient (358.15 K)	activity coefficient (368.15 K)	activity coefficient (378.15 K)	activity coefficient (388.15 K)	activity coefficient (398.15 K)	activity coefficient (408.15 K)
C1COCCO1 [1,4-dioxane] + CCCC[P+](CCCC)(CCCC)CCCC.O=S(=O)([N-]S(=O)(=O)C(F)(F)F)C(F)(F)F	0.795 ± 0.052	0.825 ± 0.053	0.853 ± 0.055	0.884 ± 0.056	0.911 ± 0.058	0.941 ± 0.059
C#CCCC [1-pentyne] + CCCC[P+](CCCC)(CCCC)CCCC.O=S(=O)([N-]S(=O)(=O)C(F)(F)F)C(F)(F)F	1.52 ± 0.1	1.58 ± 0.1	1.64 ± 0.11	1.7 ± 0.11	1.76 ± 0.12	1.82 ± 0.12
CC#N [acetonitrile] + CCCC[P+](CCCC)(CCCC)CCCC.O=S(=O)([N-]S(=O)(=O)C(F)(F)F)C(F)(F)F	0.602 ± 0.042	0.613 ± 0.043	0.625 ± 0.043	0.635 ± 0.044	0.645 ± 0.044	0.655 ± 0.045
C=Cc1ccccc1 [styrene] + CCCC[P+](CCCC)(CCCC)CCCC.O=S(=O)([N-]S(=O)(=O)C(F)(F)F)C(F)(F)F	1.01 ± 0.06	1.05 ± 0.07	1.1 ± 0.07	1.14 ± 0.07	1.18 ± 0.08	1.23 ± 0.08
CCOC(C)(C)C [2-ethoxy-2-methylpropane] + CCCC[P+](CCCC)(CCCC)CCCC.O=S(=O)([N-]S(=O)(=O)C(F)(F)F)C(F)(F)F	2.72 ± 0.19	2.78 ± 0.19	2.84 ± 0.19	2.91 ± 0.2	2.96 ± 0.2	3.02 ± 0.21
CCC(C)O (stereo not given) [butan-2-ol] + CCCC[P+](CCCC)(CCCC)CCCC.O=S(=O)([N-]S(=O)(=O)C(F)(F)F)C(F)(F)F	1.53 ± 0.1	1.49 ± 0.1	1.46 ± 0.1	1.43 ± 0.09	1.4 ± 0.09	1.37 ± 0.09
CCCO [propan-1-ol] + CCCC[P+](CCCC)(CCCC)CCCC.O=S(=O)([N-]S(=O)(=O)C(F)(F)F)C(F)(F)F	1.53 ± 0.1	1.47 ± 0.1	1.42 ± 0.09	1.37 ± 0.09	1.32 ± 0.09	1.28 ± 0.08
CCCCO [butan-1-ol] + CCCC[P+](CCCC)(CCCC)CCCC.O=S(=O)([N-]S(=O)(=O)C(F)(F)F)C(F)(F)F	1.67 ± 0.11	1.61 ± 0.11	1.56 ± 0.1	1.51 ± 0.1	1.46 ± 0.1	1.42 ± 0.09
COC(C)=O [methyl ethanoate] + CCCC[P+](CCCC)(CCCC)CCCC.O=S(=O)([N-]S(=O)(=O)C(F)(F)F)C(F)(F)F	0.753 ± 0.05	0.785 ± 0.051	0.816 ± 0.053	0.847 ± 0.054	0.878 ± 0.056	0.909 ± 0.058
Cc1ccccc1 [toluene] + CCCC[P+](CCCC)(CCCC)CCCC.O=S(=O)([N-]S(=O)(=O)C(F)(F)F)C(F)(F)F	1.11 ± 0.07	1.16 ± 0.07	1.2 ± 0.08	1.24 ± 0.08	1.28 ± 0.08	1.32 ± 0.09
CCC(C)(C)OC [2-methoxy-2-methylbutane] + CCCC[P+](CCCC)(CCCC)CCCC.O=S(=O)([N-]S(=O)(=O)C(F)(F)F)C(F)(F)F	2 ± 0.14	2.07 ± 0.14	2.13 ± 0.14	2.2 ± 0.15	2.26 ± 0.15	2.32 ± 0.16
CC(C)OC(C)C [diisopropyl ether] + CCCC[P+](CCCC)(CCCC)CCCC.O=S(=O)([N-]S(=O)(=O)C(F)(F)F)C(F)(F)F	2.88 ± 0.2	2.94 ± 0.2	3 ± 0.2	3.05 ± 0.21	3.11 ± 0.21	3.17 ± 0.22
CCC(=O)OC [methyl propanoate] + CCCC[P+](CCCC)(CCCC)CCCC.O=S(=O)([N-]S(=O)(=O)C(F)(F)F)C(F)(F)F	0.82 ± 0.053	0.857 ± 0.055	0.894 ± 0.057	0.931 ± 0.059	0.967 ± 0.061	1 ± 0.06
C=CCCC [1-pentene] + CCCC[P+](CCCC)(CCCC)CCCC.O=S(=O)([N-]S(=O)(=O)C(F)(F)F)C(F)(F)F	2.61 ± 0.18	2.66 ± 0.18	2.7 ± 0.18	2.74 ± 0.19	2.78 ± 0.19	2.82 ± 0.19
CCO [ethanol] + CCCC[P+](CCCC)(CCCC)CCCC.O=S(=O)([N-]S(=O)(=O)C(F)(F)F)C(F)(F)F	1.42 ± 0.09	1.36 ± 0.09	1.31 ± 0.09	1.26 ± 0.08	1.22 ± 0.08	1.18 ± 0.08
